Experimental data: ChEMBL document CHEMBL3885881, “DrugMatrix”

Species: Rattus norvegicus
Format: toxicity, organism-based, Sprague-Dawley
Conditions: in vivo, po, route oral GAVAGE, […]; for ABSOLUTE EOSINOPHIL / ABSOLUTE LYMPHOCYTE / ABSOLUTE MONOCYTE / ABSOLUTE SEGMENTED NEUTROPHIL / BASOPHIL / EOSINOPHIL / ERYTHROCYTE COUNT / HEMATOCRIT / HEMOGLOBIN / LEUKOCYTE COUNT / LYMPHOCYTE / MEAN CORPUSCULAR HEMOGLOBIN / MEAN CORPUSCULAR HEMOGLOBIN CONCENTRATION / MEAN CORPUSCULAR VOLUME / MONOCYTE / NEUTROPHIL / NUCLEATED RED BLOOD CELLS / PLATELET COUNT: tissue Blood; for ALANINE AMINOTRANSFERASE / ALBUMIN / ALKALINE PHOSPHATASE / ASPARTATE AMINOTRANSFERASE / BLOOD UREA NITROGEN / CARBON DIOXIDE / CHLORIDE / CHOLESTEROL / CREATINE PHOSPHOKINASE / CREATININE / GLUCOSE / LACTATE DEHYDROGENASE / LIPASE / PHOSPHORUS / POTASSIUM / SODIUM / TOTAL BILIRUBIN / TOTAL PROTEIN / URIC ACID: tissue Plasma
[1] = 0 mg/kg, 6 h, vehicle control, dose level Control, time 0.25 day
[2] = 0 mg/kg, 24 h, vehicle control, dose level Control, time 1 day
[3] = 100 mg/kg, 6 h, dose level Low, time 0.25 day
[4] = 100 mg/kg, 24 h, dose level Low, time 1 day

Description: DrugMatrix - Regimen: Single

## CC(C)(Oc1ccc(CCNC(=O)c2ccc(Cl)cc2)cc1)C(=O)O [BEZAFIBRATE]
[1]
  ABSOLUTE EOSINOPHIL: 0 CELLS/uL
  ABSOLUTE LYMPHOCYTE: 8631 CELLS/uL
  ABSOLUTE MONOCYTE: 171.17 CELLS/uL
  ABSOLUTE SEGMENTED NEUTROPHIL: 1214.5 CELLS/uL
  BASOPHIL: 0%
  EOSINOPHIL: 0%
  ERYTHROCYTE COUNT: 5.42 x10E6/uL
  HEMATOCRIT: 34.7%
  HEMOGLOBIN: 13.67 G/DL
  LEUKOCYTE COUNT: 10.02 x10E3/uL
  LYMPHOCYTE: 86.17%
  MEAN CORPUSCULAR HEMOGLOBIN: 25.27 pg
  MEAN CORPUSCULAR HEMOGLOBIN CONCENTRATION: 39.42 G/DL
  MEAN CORPUSCULAR VOLUME: 64.12 fL
  MONOCYTE: 1.67%
  NEUTROPHIL: 12.17%
  NUCLEATED RED BLOOD CELLS: 0 /100WBC
  PLATELET COUNT: 1050 x10E3/uL
  ALANINE AMINOTRANSFERASE: 61 u/L
  ALBUMIN: 4.67 G/DL
  ALKALINE PHOSPHATASE: 312.5 u/L
  ASPARTATE AMINOTRANSFERASE: 117.5 u/L
  BLOOD UREA NITROGEN: 8.67 mg/dL
  CARBON DIOXIDE: 26.33 mmol/L
  CHLORIDE: 100.5 MEQ/L
  CHOLESTEROL: 72 mg/dL
  CREATINE PHOSPHOKINASE: 283.33 u/L
  CREATININE: 0.28 mg/dL
  GLUCOSE: 172 mg/dL
  LACTATE DEHYDROGENASE: 95.33 u/L
  LIPASE: 10.17 u/L
  PHOSPHORUS: 9.9 mg/dL
  POTASSIUM: 5.75 MEQ/L
  SODIUM: 142.4 MEQ/L
  TOTAL BILIRUBIN: 0.3 mg/dL
  TOTAL PROTEIN: 5.43 G/DL
  URIC ACID: 0.73 mg/dL
[2]
  ABSOLUTE EOSINOPHIL: 90.83 CELLS/uL
  ABSOLUTE LYMPHOCYTE: 14725.17 CELLS/uL
  ABSOLUTE MONOCYTE: 220 CELLS/uL
  ABSOLUTE SEGMENTED NEUTROPHIL: 1080.67 CELLS/uL
  BASOPHIL: 0%
  EOSINOPHIL: 0.67%
  ERYTHROCYTE COUNT: 5.3 x10E6/uL
  HEMATOCRIT: 33.4%
  HEMOGLOBIN: 13.4 G/DL
  LEUKOCYTE COUNT: 16.12 x10E3/uL
  LYMPHOCYTE: 91.17%
  MEAN CORPUSCULAR HEMOGLOBIN: 25.3 pg
  MEAN CORPUSCULAR HEMOGLOBIN CONCENTRATION: 40.12 G/DL
  MEAN CORPUSCULAR VOLUME: 63.05 fL
  MONOCYTE: 1.5%
  NEUTROPHIL: 6.67%
  NUCLEATED RED BLOOD CELLS: 0 /100WBC
  PLATELET COUNT: 1062 x10E3/uL
  ALANINE AMINOTRANSFERASE: 69 u/L
  ALBUMIN: 4.33 G/DL
  ALKALINE PHOSPHATASE: 269 u/L
  ASPARTATE AMINOTRANSFERASE: 83.67 u/L
  BLOOD UREA NITROGEN: 14 mg/dL
  CARBON DIOXIDE: 29 mmol/L
  CHLORIDE: 100.83 MEQ/L
  CHOLESTEROL: 66.67 mg/dL
  CREATINE PHOSPHOKINASE: 355 u/L
  CREATININE: 0.18 mg/dL
  GLUCOSE: 161.33 mg/dL
  LACTATE DEHYDROGENASE: 123.33 u/L
  LIPASE: 10.67 u/L
  PHOSPHORUS: 8.83 mg/dL
  POTASSIUM: 6.06 MEQ/L
  SODIUM: 142.45 MEQ/L
  TOTAL BILIRUBIN: 0.2 mg/dL
  TOTAL PROTEIN: 5.72 G/DL
  URIC ACID: 1.27 mg/dL
[3]
  ABSOLUTE EOSINOPHIL: 94.83 CELLS/uL
  ABSOLUTE LYMPHOCYTE: 14637.67 CELLS/uL
  ABSOLUTE MONOCYTE: 333.5 CELLS/uL
  ABSOLUTE SEGMENTED NEUTROPHIL: 1884 CELLS/uL
  BASOPHIL: 0%
  EOSINOPHIL: 0.5%
  ERYTHROCYTE COUNT: 5.71 x10E6/uL
  HEMATOCRIT: 36.27%
  HEMOGLOBIN: 14.22 G/DL
  LEUKOCYTE COUNT: 16.95 x10E3/uL
  LYMPHOCYTE: 86.67%
  MEAN CORPUSCULAR HEMOGLOBIN: 24.97 pg
  MEAN CORPUSCULAR HEMOGLOBIN CONCENTRATION: 39.22 G/DL
  MEAN CORPUSCULAR VOLUME: 63.68 fL
  MONOCYTE: 2%
  NEUTROPHIL: 10.83%
  NUCLEATED RED BLOOD CELLS: 0 /100WBC
  PLATELET COUNT: 1045.83 x10E3/uL
  ALANINE AMINOTRANSFERASE: 67.33 u/L
  ALBUMIN: 4.53 G/DL
  ALKALINE PHOSPHATASE: 339 u/L
  ASPARTATE AMINOTRANSFERASE: 90 u/L
  BLOOD UREA NITROGEN: 8.17 mg/dL
  CARBON DIOXIDE: 18.33 mmol/L
  CHLORIDE: 102.17 MEQ/L
  CHOLESTEROL: 75.5 mg/dL
  CREATINE PHOSPHOKINASE: 329.33 u/L
  CREATININE: 0.19 mg/dL
  GLUCOSE: 163 mg/dL
  LACTATE DEHYDROGENASE: 253 u/L
  LIPASE: 10.17 u/L
  PHOSPHORUS: 12.57 mg/dL
  POTASSIUM: 5.78 MEQ/L
  SODIUM: 143.17 MEQ/L
  TOTAL BILIRUBIN: 0.32 mg/dL
  TOTAL PROTEIN: 6.1 G/DL
  URIC ACID: 1.68 mg/dL
[4]
  ABSOLUTE EOSINOPHIL: 44 CELLS/uL
  ABSOLUTE LYMPHOCYTE: 13234.17 CELLS/uL
  ABSOLUTE MONOCYTE: 357.67 CELLS/uL
  ABSOLUTE SEGMENTED NEUTROPHIL: 1847.5 CELLS/uL
  BASOPHIL: 0%
  EOSINOPHIL: 0.33%
  ERYTHROCYTE COUNT: 5.35 x10E6/uL
  HEMATOCRIT: 34.67%
  HEMOGLOBIN: 13.47 G/DL
  LEUKOCYTE COUNT: 15.48 x10E3/uL
  LYMPHOCYTE: 85%
  MEAN CORPUSCULAR HEMOGLOBIN: 25.28 pg
  MEAN CORPUSCULAR HEMOGLOBIN CONCENTRATION: 38.95 G/DL
  MEAN CORPUSCULAR VOLUME: 64.9 fL
  MONOCYTE: 2.33%
  NEUTROPHIL: 12.33%
  NUCLEATED RED BLOOD CELLS: 0.17 /100WBC
  PLATELET COUNT: 977.33 x10E3/uL
  ALANINE AMINOTRANSFERASE: 83.17 u/L
  ALBUMIN: 4.5 G/DL
  ALKALINE PHOSPHATASE: 333 u/L
  ASPARTATE AMINOTRANSFERASE: 86.33 u/L
  BLOOD UREA NITROGEN: 13 mg/dL
  CARBON DIOXIDE: 28.83 mmol/L
  CHLORIDE: 101.67 MEQ/L
  CHOLESTEROL: 43.5 mg/dL
  CREATINE PHOSPHOKINASE: 192.33 u/L
  CREATININE: 0.21 mg/dL
  GLUCOSE: 143.33 mg/dL
  LACTATE DEHYDROGENASE: 106.5 u/L
  LIPASE: 10.17 u/L
  PHOSPHORUS: 9.88 mg/dL
  POTASSIUM: 6.29 MEQ/L
  SODIUM: 146.55 MEQ/L
  TOTAL BILIRUBIN: 0.17 mg/dL
  TOTAL PROTEIN: 5.77 G/DL
  URIC ACID: 1.02 mg/dL
